“Also recorded” adds a separate entry of the source. Where two headings read alike, the source gives them in different places.
Assays:
[1] = test system: proteasome substrates p27, Bax and IKB; experiment: Western blot, accumulation of proteasome substrates; format: cell-based
HCT-116 = experiment: MTT assay, proliferation and viability; format: cell-based; conditions: Homo sapiens, HCT-116, mut K-Ras
[2] = molecular target: CT-L activity of purified 20S proteasome (Homo sapiens, UniProt P20618+P28074); experiment: in vitro CT-L activity of purified 20S proteasome; format: biochemical
[3] = test system: MDA-MB-468 and HCT-116 cells; experiment: Western blot for cleaved caspase-3 and cleaved PARP (apoptosis); format: cell-based, human; conditions: 48 h or 24 h
Method: FIG. 17 is a blot showing the apoptotic potential of PI-1833 and PI-1840. Exponentially growing human breast cancer cells MDA-MB-468 and colon cancer cells HCT-116 were treated with different concentrations of PI-1833 or PI-1840 for 48 h or 24 h, followed by WB analysis for cleaved caspase-3 and cleaved PARP.

HCT-116-p53^−/− = experiment: MTT assay, proliferation and viability; format: cell-based
HCT-116-HKH2 = experiment: MTT assay, proliferation and viability; format: cell-based; conditions: HCT-116-HKH2, K-Ras^−/−
PC3 = experiment: MTT assay, proliferation and viability; format: cell-based; conditions: Homo sapiens, PC-3
MDA-MB-468 = experiment: MTT assay, proliferation and viability; format: cell-based; conditions: Homo sapiens, MDA-MB-468, WT K-Ras
[4] = molecular target: T1, PGPH activity in MDA-MB-468 cells (Homo sapiens, UniProt P28072); experiment: PGPH activity in MDA-MB-468 cells; format: cell-based; conditions: MDA-MB-468, within 10 min
T1 construct: endogenous in cells; host or cells: MDA-MB-468

[5] = molecular target: T2, CT-L activity in human breast cancer MDA-MB-468 cells (Homo sapiens, UniProt P20618+P28074); experiment: whole cell CT-L activity in MDA-MB-468 cells; format: cell-based; conditions: MDA-MB-468; listed as PI-1840
T2 construct: endogenous in cells; host or cells: MDA-MB-468

DU-145 = experiment: MTT assay, proliferation and viability; format: cell-based; conditions: Homo sapiens, DU-145, Bax^−/−
MDA-MB-231 = experiment: MTT assay, proliferation and viability; format: cell-based; conditions: Homo sapiens, MDA-MB-231, mut K-Ras
Colo357 = experiment: MTT assay, proliferation and viability; format: cell-based; conditions: Homo sapiens, COLO357, 96 h
[6] = molecular target: T3, T-L activity in MDA-MB-468 cells (Homo sapiens, UniProt Q99436); experiment: T-L activity in MDA-MB-468 cells; format: cell-based; conditions: MDA-MB-468, within 10 min
T3 construct: endogenous in cells; host or cells: MDA-MB-468

MCF-10A = experiment: MTT assay, proliferation and viability; format: cell-based; conditions: Homo sapiens, normal/immortalized, 72 h
RX7-397 = experiment: MTT assay, proliferation and viability; format: cell-based; conditions: RX7-397, 96 h
RPMI-8226 = experiment: MTT assay, proliferation and viability; format: cell-based; conditions: Homo sapiens
LNCaP = experiment: MTT assay, proliferation and viability; format: cell-based; conditions: Homo sapiens, Bax^+/+
[7] = WT p53, 72 h, read-out: 72 h (MTT assay)
[8] = WT p53, 96 h, read-out: 96 h (MTT assay)
[9] = 72 h, read-out: 72 h (MTT assay)
[10] = 96 h, read-out: 96 h (MTT assay)

- IC50 (HCT-116; [7]): 40.9 ± 15.8 µM
- IC50 (HCT-116; [8]): 35.3 µM
- fold improved CT-L activity ([2]; compared to the hit 1 (PI-1833)): 20 fold
- IC50 ([2]; read-out: IC50, in vitro CT-L): 0.032 µM
- IC50 (HCT-116-p53^−/−; [9]): 45.9 ± 19.9 µM
- IC50 (HCT-116-p53^−/−; [10]): 31.1 µM
- IC50 (HCT-116-HKH2; [7]): 43 ± 9.73 µM
- IC50 (HCT-116-HKH2; [8]): 12.8 µM
- IC50 (PC3; PC3, 72 h, read-out: 72 h (MTT assay)): 92.7 µM
- IC50 (PC3; PC3, 96 h, read-out: 96 h (MTT assay)): 62.5 µM
- IC50 (MDA-MB-468; mut p53, 72 h, read-out: 72 h (MTT assay)): 25.4 ± 5.83 µM
- IC50 (MDA-MB-468; mut p53, 96 h, read-out: 96 h (MTT assay)): 11.6 µM
- inhibition of PGPH activity in cells, in words [4]: not T-L or PGPH
- IC50 (DU-145; [9]): 123 ± 25.2 µM
- IC50 (DU-145; [10]): 159 µM
- IC50 (MDA-MB-231; [9]): 133 ± 21.6 µM
- IC50 (MDA-MB-231; [10]): 106 µM
- IC50 (Colo357): 95.7 µM
- inhibition of T-L activity in cells, in words [6]: not T-L or PGPH
- IC50 (RPMI-8226; RPMI-8226, 72 h, read-out: 72 h (MTT assay)): 35.9 ± 11.2 µM
- IC50 (RPMI-8226; RPMI-8226, 96 h, read-out: 96 h (MTT assay)): 34.7 µM
- IC50 (LNCaP; [9]): 49 ± 6.81 µM
- IC50 (LNCaP; [10]): 17.2 µM
Structure (SMILES): CCCc1ccc(OCC(=O)N(Cc2nc(-c3cccnc3)no2)C(C)C)cc1 [11ad]
- accumulation of proteasome substrates p27, Bax and IKB, in words [1]: more potent at accumulating the proteasome substrates p27, Bax and IKB
- induction of apoptosis, in words [3]: efficiently inducing apoptosis
- inhibition of CT-L activity in cells, in words [5]: inhibits CT-L; also recorded: more potent at inhibiting CT-L activity in human breast cancer
- IC50 (MCF-10A): 63.1 ± 7.06 µM
- IC50 (RX7-397): 56.9 µM
